Results on 1 compound are retold here after paper PMC9822155, “Synthesis and Antiproliferative Activity against Cancer Cells of Indole-Aryl-Amide Derivatives” (Molecules, 2022).

Structures are written as SMILES.

In test [1] the test system is Jurkat J6 cells. The test is described as follows: MTT viability assay, Jurkat J6. Format: cell-based, human. An excerpt: (§1) To investigate whether the compounds have an antitumor activity, we performed in vitro viability assays against a panel of cancer cell lines: HT29 (human colorectal adenocarcinoma), HeLa (human cervical carcinoma), IGROV-1 (human ovarian carcinoma), MCF7 (human breast cancer), PC-3 (human prostate adenocarcinoma), and Jurkat J6 (human […]). The I407 (human embryonic intestinal) and 3T3 (mouse embryonic fibroblast) cells were used as controls. The growth inhibitory concentration was determined by incubating the cells with increasing concentrations (0.01–500 μM) of the compounds for 24 h. Data obtained from cell growth assays were elaborated to assess the concentration of cell viability (IC50) and selectivity indices (SI), and the results are shown in Table 2 and Table 3, respectively.
(§2) HT29 human colorectal adenocarcinoma cells, HeLa human cervix adenocarcinoma cells, MCF7 human breast adenocarcinoma cells, PC-3 human prostate adenocarcinoma cells, J6 Jurkat Clone E6-1 acute T cell leukemia, the healthy I407 human intestine cells, and mouse embryonic fibroblast 3T3 fibroblasts as controls cell lines were purchased from American Type Culture Collection (ATCC, Manassas, VA). The human ovarian cancer cell line IGROV1 has been kindly provided by Prof. Colnaghi (Istituto Nazionale Tumori (IRCCS) (Milano, Italy). Cells were cultured in RPMI 1640 medium (Labtek Eurobio, Milan, Italy), supplemented with 10% FCS (Euroclone, Milano, Italy) and 2 mM L-glutamine (Sigma-Aldrich, Milano, Italy), at 37 °C, and a 5% CO2 atmosphere. The compounds were dissolved in DMSO in a 30–40 mM stock solution. In cell treatments, the final DMSO concentration never exceeded 0.1%.
(§3) Cells were seeded at 1.5 × 10^4 cells/well in a 96-well culture plastic plate (Sarsted, Milan, Italy), and after 24 h of growth were exposed to increasing concentrations of each distinct compound (from 0.010 μM to 500 μM) solubilized in RPMI 1640 medium. MTT assay was performed according to the literature. In brief, after 24 h of treatment, the culture medium was replaced with 0.1 mL of 3-(4,5-dimethylthiazolyl-2)-2,5-diphenyltetrazolium bromide (MTT, Sigma-Aldrich, Milano, Italy) dissolved in PBS at the concentration of 0.2 mg/mL, and samples were incubated for 2 h at 37 °C. The absorbance at 570 nm was measured using a multiwell plate reader (Tecan, Männemorf, Switzerland), and data were analyzed by Prism GraphPad software, and expressed as IC50 μM.

Test [2] has as its system acetylated histones in HT29 cells. As to the kind of experiment: Histone acetylation, western blot of nuclear lysates. Conditions: HT29, 5 μM, 6 h. Format: cell-based, human. On the procedure:
In order to identify acetylated histones, we analyzed the nuclear cell lysates by western blot using a 10% polyacrylammide gel electrophoresis. […] Differences in the density of the bands are thought to reflect differences in protein acetylation levels. Histone acetylation signals were quantified by densitometry and normalized on histone H1 (Figure 5).
HT29 cells were seeded in dish and after 24 h they were treated for 6 h with compound 5 at final concentration of 5 µM. Cells were harvested, washed with 10 mM sodium butyrate in PBS, and nuclei were isolated in according to Amellem and Micheletti. The nuclear pellet was suspended in 0.1 mL ice-cold H2O using a Vortex mixer, and concentrated H2SO4 was added to the suspension to give a final concentration of 0.4 N. After incubation at 4 °C for 1 h, the suspension was centrifuged for 5 min at 14,000× g, and the supernatant was taken and mixed with 1 mL of acetone. After overnight incubation, the coagulate material was collected by microcentrifugation and air-dried. […] Proteins were quantified using a protein assay kit (Bio-Rad, Hercules, CA, USA). Histones were detected resolving samples on a 10% gel in MES buffer at 200 V for 40 min. […] After five washes with PBS-TWEEN 20 0.1%, antibody binding was detected by Amersham ECL Plus Western Blotting Detection System (GE Healthcare, Milan, Italy).
A general note: In western blotting, separated proteins are transferred to a membrane and probed.

Test [3] concerns IGROV-1 (human ovarian carcinoma) cells. As to the kind of experiment: MTT viability assay, IGROV-1. Format: cell-based. To be noted: 24 h.
From the text: as §1, §2, §3
For orientation: Formazan colour is commonly taken as a measure of viable cells.

The subject of test [4] is HeLa (human cervical carcinoma) cells. As to the kind of experiment: MTT viability assay, HeLa. Format: cell-based. To be noted: Homo sapiens; MTT, 24 h.
From the text: as §1, §2, §3

The test system of test [5] is PC-3 (human prostate adenocarcinoma) cells. As to the kind of experiment: MTT viability assay, PC3. Format: cell-based.
From the text: as §1, §2, §3

Test [6] deals with I407 (human embryonic intestinal) cells. As to the kind of experiment: MTT viability assay, I407. The test is classed as cell-based. Conditions: 24 h, normal cells.
From the text: as §1, §2, §3

For test [7], the system named is 3T3 (mouse embryonic fibroblast) cells. As to the kind of experiment: MTT viability assay, 3T3. The test is classed as cell-based. Conditions: 24 h, normal cells.
From the text: as §1, §2, §3

In test [8] the target is T1, κ-OR (Homo sapiens, UniProt P41145).
T1 construct: purchased PerkinElmer (Krakow, Poland); host or cells: CHO cells (membranes)
T1 sequence (P41145 whole entry): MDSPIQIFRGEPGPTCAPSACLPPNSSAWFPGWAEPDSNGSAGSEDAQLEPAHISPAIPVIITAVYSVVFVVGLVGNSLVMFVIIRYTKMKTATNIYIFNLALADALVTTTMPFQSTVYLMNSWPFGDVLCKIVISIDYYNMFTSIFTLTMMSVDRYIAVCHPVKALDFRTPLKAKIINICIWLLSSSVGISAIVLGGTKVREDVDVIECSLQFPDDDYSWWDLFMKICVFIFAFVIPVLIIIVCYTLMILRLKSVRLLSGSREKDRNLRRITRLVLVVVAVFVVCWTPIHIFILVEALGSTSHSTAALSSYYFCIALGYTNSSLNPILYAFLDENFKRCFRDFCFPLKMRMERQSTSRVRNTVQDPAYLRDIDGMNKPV
The test is described as follows: Radioligand binding assay, κ-OR ([3H]U-69593 displacement). To be noted: [3H]U-69593, membranes of CHO cells with human recombinant OR; ± SEM (n ≥ 3). The protocol: In order to evaluate the affinity of the compounds for μ-, δ-, κ-ORs, radioligand binding assays were performed. Displacement of radioligands, [^3H]DAMGO (μ-OR selective), [^3H]deltorphin-2 (δ-OR selective), and [^3H]U-69593 (κ-OR selective) by the synthetic analogs was investigated in the commercial membranes of CHO cells transfected with human recombinant ORs. […] Due to the modest receptor affinities, the functional activity of the compounds was not investigated.
Opioid radioligands, [^3H]DAMGO, [^3H]deltorphin-2 and [^3H]U-69593, and human recombinant opioid receptors came from PerkinElmer (Krakow, Poland). GF/B glass fiber strips were purchased from Whatman (Brentford, UK).
To determine the affinity of peptide analogs at the respective receptors, competition binding experiments were performed. Commercial membranes of CHO cells stably expressing human opioid receptors and the competing radioligands, [^3H]DAMGO, [^3H]deltorphin-2, and [^3H]U-69593 for μ-OR, δ-OR, and κ-OR, respectively, were used. Membranes were incubated in 0.5 mL volume of 50 mM Tris/HCl (pH = 7.4), 0.5% bovine serum albumin (BSA), with a number of peptidase inhibitors (bacitracin, bestatin, captopril) and various concentrations of radioligands for 2 h at 25 °C. Non-specific binding was assessed in the presence of […]. Three independent experiments for each assay were carried out in duplicate. The data were analyzed by a nonlinear least square regression analysis computer program Graph Pad PRISM 6.0 (Graph Pad Software Inc., San Diego, CA, USA). The IC50 values were determined from the logarithmic concentration-displacement curves, and the values of the inhibitory constants (Ki) were calculated according to the equation of Cheng and Prusoff.

For orientation: IC50 means the midpoint of a concentration-inhibition curve. A word on the Ki: it is the dissociation constant of the complex between target and ligand, obtained from inhibition or displacement. Regarding `Nc1ccc(CN(Cc2ccc(O)cc2)C(=O)Cc2c[nH]c3ccccc23)cc1` [Compound 5], the “Selectivity Index IC503T3/ IC50J6” value in test [1] (3T3 normal cells as reference) was 86.487. Besides, the IC50 in test [1] (Homo sapiens, Jurkat, MTT, 24 h) is 0.37 ± 0.04 µM; in test [3], > 500 µM; in test [4], > 500 µM; in test [5] (Homo sapiens, MTT, 24 h), 0.39 ± 0.07 µM; in test [6] (Homo sapiens), > 500 µM; in test [7], 32 ± 0.02 µM. For the same compound, the “Histone H2/H3 acetylation” value in test [2] was “did not modify the state of acetylation of H2/H3”. The “Histone H4 acetylation” value in test [2] is “induced H4 hyperacetylation”. Besides, the “Selectivity Index IC503T3/ IC50PC3” value in test [5] (3T3 normal cells as reference) came to 82.051. In addition, the “IC50 [µM] I407” value in test [6] is “no activity”. The Ki in test [8] came to 3.8 ± 0.52 µM. Moreover, the “Ki (µM) κ-OR” value in test [8] is reported as “low μM range”.
